We go through 4 molecules from patent publication US4482486A, “Analogs of vasopressin” (Ceskoslovenska akademie ved, priority 1982, dated 1984).

Holding throughout (type): in vivo
Assay [1] has as its system anaesthesized rat. Description: Antidiuretic activity, anaesthesized rat. The procedure: (§1) The endocrine biological activities (in I.U./mg--International Unit--see "Handbook of Experimental Pharmacology", Vol. XXIII: Neurohypophysical hormones and similar polypeptides (B. Berde, Ed), p. 131, Springer-Verlag,Berlin 1968) of the described compounds were determined in rats.

Assay [2] has as its system rats. As to the kind of experiment: Uterotonic endocrine activity in rats. Conditions: rat. As for the experimental part:
as §1

In assay [3] the test system is nonanaesthesized rat. Description: Antidiuretic activity, nonanaesthesized rat. Conditions: percent of the effect of [8D-argine] deaminovasopressin at the level of threshold efficiency. As for the experimental part: as §1
b = nonanaesthesized rat Activity is expressed in percent of the effect o
[8D-argine] deaminovasopressin at the level of threshold efficiency

Assay [4] has as its system rats. As to the kind of experiment: Pressor endocrine activity in rats. Conditions: rat. As for the experimental part:
as §1

In assay [5] the test system is rats. As to the kind of experiment: Galactogogic endocrine activity in rats. Conditions: rat. The procedure:
as §1

The molecule “Lactam of tyrosyl-phenylalanyl-glutaminyl-asparaginyl-S-(γ-carboxypropyl)cysteinyl-prolyl-D-arginine [Ia]” came in with an Antidiuretic activity a in assay [1] of 0.8 I.U./mg. The molecule further yielded a Uterotonic activity in assay [2] of 0.09 I.U./mg. For the same molecule, the Antidiuretic activity b in assay [3] stood at 0.2%. Besides, in assay [4], the Pressor activity result is “inhibition”.
In assay [1], “[8-Ornithine, 9-desglycinamide]vasopressin [Ic]” showed an Antidiuretic activity a of 0.3 I.U./mg. The molecule further came in with a Uterotonic activity in assay [2] of 0.09 I.U./mg. In assay [3], the Antidiuretic activity b came to 0.1%. Further, the Pressor activity in assay [4] was found to be 0.2 I.U./mg. In assay [5], this molecule gave a Galactogogic activity of 0.02 I.U./mg.
The molecule “[8-D-Arginine, 9-desglycinamide] vasopressin [Ib]” returned an Antidiuretic activity a in assay [1] of 4.5 I.U./mg. The Uterotonic activity in assay [2] is on record as 0.07 I.U./mg. This molecule also gave an Antidiuretic activity b in assay [3] of 0.4%. Moreover, in assay [4], the Pressor activity amounted to 0.2 I.U./mg. The molecule further returned a Galactogogic activity in assay [5] of 0.12 I.U./mg.
For `NC(=O)CC[C@@H]1NC(=O)[C@H](Cc2ccccc2)NC(=O)[C@H](Cc2ccc(O)cc2)NC(=O)[C@@H](N)CSSC[C@@H](C(=O)N2CCC[C@H]2C(=O)N[C@@H](CCCN=C(N)N)C(=O)NCC(N)=O)NC(=O)[C@H](CC(N)=O)NC1=O` [AVP, [8arginine] vasopressin, reference compound], the Antidiuretic activity a in assay [1] came to 465 I.U./mg. In addition, in assay [2], the Uterotonic activity was 17 I.U./mg. For the same molecule, the Antidiuretic activity b in assay [3] worked out at 20%. Moreover, the Pressor activity in assay [4] is on record as 465 I.U./mg. In assay [5], the Galactogogic activity is recorded as 69 I.U./mg.
